Values quoted from earlier work, collected in patent publication US20260199259A1, “CONTROLLED LIPID SELF-ASSEMBLY FOR SCALABLE MANUFACTURING OF NEXTGENERATION IMMUNE STIMULATING COMPLEXES” (MASSACHUSETTS INSTITUTE OF TECHNOLOGY, priority 2022, published 2026).

Legend:
[1] = system: chick embryo eggs; details: measured by lethal dose in chick embryo eggs

micelle size (aqueous solutions)	solubility (in PBS)	Substance	factor of toxicity reduction relative to LPS [1]
		4′-monophosporyl lipid A [MPLA]	more than 1000
~ 7 nm	up to 30 mg/mL	QS-21	
